As a reminder, the IC50 is the concentration that inhibits the measured activity by half.

This note sets out measurements from patent US20240208994A1, “PLASMA KALLIKREIN INHIBITORS” (Merck Sharp & Dohme LLC, priority 2021, published 2024).

Test [1] deals with T1, Human plasma kallikrein (Homo sapiens, UniProt P03952).
T1 construct: yields a heavy chain (371 amino acids) and a light chain (248 amino acids); purchased Enzyme Research Laboratories
Kind of test: Plasma Kallikrein Assay. Type of test: biochemical. To be noted: purified Human plasma kallikrein 0.5 nM, substrate Acetyl-K-P-R-AFC, HEPES pH 7.4, fluorescence 405 Ex/510 Em; read-out: PKal IC50. As to the method: (§1) The effectiveness of a compound of the present invention as an inhibitor of plasma kallikrein can be determined using a relevant purified serine protease, and an appropriate synthetic substrate. The rate of hydrolysis of the chromogenic or fluorogenic substrate by the relevant serine protease was measured both in the absence and presence of compounds of the present invention. Assays were conducted at rt or at 37° C. […] A decrease in the rate of fluorescence change in the presence of inhibitor is indicative of enzyme inhibition. Such methods are known to one skilled in the art. The results of this assay are expressed as the half-maximal inhibitory concentrations (IC50), or the inhibitory constant, Ki.
Plasma kallikrein determinations were made in 50 mM HEPES buffer at pH 7.4 containing 150 mM NaCl, 5 mM CaCl2), and 0.1% PEG 8000 (polyethylene glycol: Fisher Scientific). Determinations were made using purified Human plasma kallikrein at a final concentration of 0.5 nM (Enzyme Research Laboratories) and the synthetic substrate, Acetyl-K-P-R-AFC (Sigma #C6608) at a concentration of […].
Activity assays were performed by diluting a stock solution of substrate at least tenfold to a final concentration ≤0.2 Km into a solution containing enzyme or enzyme equilibrated with inhibitor. Times required to achieve equilibration between enzyme and inhibitor were determined in control experiments. The reactions were performed under linear progress curve conditions and fluorescence increase measured at 405 Ex/510 Em nm. Values were converted to percent inhibition of the control reaction (after subtracting 100% Inhibition value). IC50 was determined by inflection point from a four parameter logistic curve fit. Ki was calculated using the Cheng Prusoff equation, Ki=IC50/(1+([S]/Km)).

Test [2] deals with human factor XIa (Homo sapiens, UniProt P03951). In words: Factor XIa Assay. Type of test: biochemical. To be noted: human factor XIa 0.04 nM, 30 min pre-incubation at 25° C., substrate GPR-AFC, pH 7.4, 60 min incubation; read-out: FXIa IC50. As to the method: as §1, with “Coagulation factor XIa” for “plasma kallikrein”
Chain of human factor XIa (P03951 388-625 limits assumed): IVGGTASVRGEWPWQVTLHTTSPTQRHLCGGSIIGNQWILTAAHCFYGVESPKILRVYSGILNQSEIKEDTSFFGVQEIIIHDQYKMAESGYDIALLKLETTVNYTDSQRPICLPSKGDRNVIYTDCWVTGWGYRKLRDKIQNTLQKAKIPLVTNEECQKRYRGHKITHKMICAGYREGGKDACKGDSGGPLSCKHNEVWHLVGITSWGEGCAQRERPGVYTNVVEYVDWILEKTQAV
Chain of human factor XIa (P03951 19-387 partner limits assumed): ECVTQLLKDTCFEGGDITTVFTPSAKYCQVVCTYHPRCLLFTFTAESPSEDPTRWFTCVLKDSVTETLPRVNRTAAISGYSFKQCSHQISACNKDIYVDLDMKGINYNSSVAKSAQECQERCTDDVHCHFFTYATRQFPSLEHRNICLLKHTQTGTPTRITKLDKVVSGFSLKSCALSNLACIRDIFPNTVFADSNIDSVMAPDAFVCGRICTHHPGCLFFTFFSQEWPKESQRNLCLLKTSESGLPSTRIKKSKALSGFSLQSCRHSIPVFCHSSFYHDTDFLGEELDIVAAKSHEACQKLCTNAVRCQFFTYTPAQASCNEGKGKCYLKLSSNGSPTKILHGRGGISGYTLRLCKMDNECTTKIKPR
Compounds were pre-incubated for 30 min at 25° C. with human (0.04 nM) factor XIa in 50 mM HEPES buffer with 150 mM sodium chloride, 5 mM calcium chloride, 0.1% PEG 8000, pH 7.4. factor XIa enzymatic activity was determined by addition of the substrate glycine-proline-arginine-7-amido-4-trifluoromethylcoumarin (GPR-AFC) and measurement of the fluorescence at 400/505 nm after a 60 min incubation at 25° C. The % inhibition for each data point was calculated from the data and analyzed using the log (inhibitor) vs. response four parameters equation to determine the half-maximal inhibitory concentrations (IC50). The IC50 were converted to equilibrium inhibitory constants (Ki) using the Cheng-Prusoff equation.

Structures are written as SMILES.

T1 sequence (P03952 391-638 limits assumed): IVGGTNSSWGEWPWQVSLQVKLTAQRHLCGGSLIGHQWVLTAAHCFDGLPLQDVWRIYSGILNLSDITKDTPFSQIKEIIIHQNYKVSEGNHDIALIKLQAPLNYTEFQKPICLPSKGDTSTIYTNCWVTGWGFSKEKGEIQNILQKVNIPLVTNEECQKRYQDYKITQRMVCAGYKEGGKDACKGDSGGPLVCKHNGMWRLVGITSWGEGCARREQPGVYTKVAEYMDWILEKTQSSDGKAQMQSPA
T1 sequence (P03952 20-390 partner limits assumed): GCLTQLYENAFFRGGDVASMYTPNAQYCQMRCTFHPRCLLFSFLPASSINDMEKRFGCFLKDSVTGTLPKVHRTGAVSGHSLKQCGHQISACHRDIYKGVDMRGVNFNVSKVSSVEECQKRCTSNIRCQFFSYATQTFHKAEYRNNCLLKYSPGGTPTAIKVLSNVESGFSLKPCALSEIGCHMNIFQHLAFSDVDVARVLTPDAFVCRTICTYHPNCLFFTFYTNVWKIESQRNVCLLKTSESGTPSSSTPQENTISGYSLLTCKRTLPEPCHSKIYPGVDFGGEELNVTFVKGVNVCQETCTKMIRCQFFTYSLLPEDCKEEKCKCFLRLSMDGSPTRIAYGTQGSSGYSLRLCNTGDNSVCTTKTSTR

Turning to `Cc1ccccc1-c1cc(N)n(CC(=O)N2CC[C@@]3(C2)OC(=O)Nc2ccc(Cl)c(F)c23)n1` [Example 54, (R)-1′-(2-(5-Amino-3-(o-tolyl)-1H-pyrazol-1-yl)acetyl)-6-chloro-5-fluorospiro[benzo[d][1,3]oxazine-4,3′-pyrrolidin]-2(1H)-one], the results for the IC50 in test [1] and in test [2] were 0.0051 µM and 0.289 µM, respectively.

Consider `Nc1cc(-c2ccc(F)cc2)nn1CC(=O)N1CCC[C@@]2(C1)OC(=O)Nc1ccc(Cl)c(F)c12` [Example 17, (R)-1′-(2-(5-Amino-3-(4-fluorophenyl)-1H-pyrazol-1-yl)acetyl)-6-chloro-5-fluorospiro[benzo[d][1,3]oxazine-4,3′-piperidin]-2(1H)-one], for which the half-inhibitory concentration (IC50) stood at 0.021 µM in test [1] and 2.55 µM in test [2].

For `Nc1cc(-c2ccc(F)cc2)nn1CC(=O)N1CC[C@@]2(C1)OC(=O)Nc1ccc(Cl)c(F)c12` [Example 1, (R)-1′-(2-(5-Amino-3-(4-fluorophenyl)-1H-pyrazol-1-yl)acetyl)-6-chloro-5-fluorospiro[benzo[d][1,3]oxazine-4,3′-pyrrolidin]-2(1H)-one 2,2,2-trifluoroacetate], the half-inhibitory concentration (IC50) in test [1] amounted to 0.0099 µM; in test [2] it was 0.513 µM.

For the molecule `Nc1c2c(nn1CC(=O)N1CC[C@@]3(C1)OC(=O)Nc1ccc(Cl)c(F)c13)CCC2` [Example 13, (R)-1′-(2-(3-Amino-5,6-dihydrocyclopenta[c]pyrazo1-2(4H)-yl)acetyl)-6-chloro-5-fluorospiro[benzo[d] [1,3]oxazine-4,3′-pyrrolidin]-2(1H)-one], the IC50 in test [1] amounted to 0.0388 µM; in test [2] it was 0.277 µM.

`Nc1cc(-c2ccc(OC(F)(F)F)cc2)nn1CC(=O)N1CC[C@@]2(C1)OC(=O)Nc1ccc(Cl)c(F)c12` [Example 7, (R)-1′-(2-(5-Amino-3-(4-(trifluoromethoxy)phenyl)-1H-pyrazol-1-yl)acetyl)-6-chloro-5-fluorospiro[benzo[d][1,3]oxazine-4,3′-pyrrolidin]-2(1H)-one]: the half-inhibitory concentration (IC50) in test [1] was determined as 0.049 µM; in test [2], 4.14 µM.

As for `Nc1c(Cl)c(-c2ccc(F)cc2F)nn1CC(=O)N1CCC[C@@]2(C1)OC(=O)Nc1ccc(Cl)c(F)c12` [Example 21, (R)-1′-(2-(5-Amino-4-chloro-3-(2,4-difluorophenyl)-1H-pyrazol-1-yl)acetyl)-6-chloro-5-fluorospiro[benzo[d][1,3]oxazine-4,3′-piperidin]-2(1H)-one], the half-inhibitory concentration (IC50) in test [1] was 0.019 µM; in test [2], 0.325 µM.

On to `Nc1cc(-c2cccc(C(F)(F)F)c2)nn1CC(=O)N1CC[C@@]2(C1)OC(=O)Nc1ccc(Cl)c(F)c12` [Example 12, (R)-1′-(2-(5-Amino-3-(3-(trifluoromethyl)phenyl)-1H-pyrazol-1-yl)acetyl)-6-chloro-5-fluorospiro[benzo[d][1,3]oxazine-4,3′-pyrrolidin]-2(1H)-one], for which the IC50 in test [1] worked out at 0.0375 µM; in test [2], 2.71 µM.

As to `Nc1cc(-c2ccco2)nn1CC(=O)N1CC[C@@]2(C1)OC(=O)Nc1ccc(Cl)c(F)c12` [Example 40, (R)-1′-(2-(5-Amino-3-(furan-2-y1)-1H-pyrazol-1-yl)acetyl)-6-chloro-5-fluorospiro[benzo[d] [1,3]oxazine-4,3′-pyrrolidin]-2(1H)-one], the IC50 worked out at 0.0162 µM in test [1] and 0.225 µM in test [2].

Turning to `Nc1c(F)c(-c2ccc(F)cc2F)nn1CC(=O)N1CCC[C@@]2(C1)OC(=O)Nc1ccc(Cl)c(F)c12` [Example 30, (R)-1′-(2-(5-Amino-3-(2,4-difluorophenyl)-4-fluoro-1H-pyrazol-1-yl)acetyl)-6-chloro-5-fluorospiro[benzo[d][1,3]oxazine-4,3'-piperidin]-2(1H)-one], the 50% inhibitory concentration (IC50) was found to be 0.0374 µM in test [1] and 0.164 µM in test [2].

For `Nc1cc(-c2cccnn2)nn1CC(=O)N1CC[C@@]2(C1)OC(=O)Nc1ccc(Cl)c(F)c12` [Example 25, (R)-1′-(2-(5-Amino-3-(pyridazin-3-yl)-1H-pyrazol-1-yl)acetyl)-6-chloro-5-fluorospiro[benzo[d][1,3]oxazine-4,3′-pyrrolidin]-2(1H)-one], the half-inhibitory concentration (IC50) in test [1] was 0.0127 µM; in test [2], 0.367 µM.

With `Nc1cc(C2C3COCC32)nn1CC(=O)N1CC[C@@]2(C1)OC(=O)Nc1ccc(Cl)c(F)c12` (stereo partly drawn) [Example 61, (4R)-1′-(2-(5-Amino-3-(3-oxabicyclo[3.1.0]hexan-6-y1)-1H-pyrazol-1-yl)acetyl)-6-chloro-5-fluorospiro[benzo[d][1,3]oxazine-4,3′-pyrrolidin]-2(1H)-one], the results for the 50% inhibitory concentration (IC50) in test [1] and in test [2] were 0.0272 µM and 0.791 µM, respectively.

As to `Nc1cc(-c2ccccc2)nn1CC(=O)N1CC[C@@]2(C1)OC(=O)Nc1ccc(Cl)c(F)c12` [Example 24, (R)-1′-(2-(5-Amino-3-phenyl-1H-pyrazol-1-yl)acetyl)-6-chloro-5-fluorospiro[benzo[d][1,3]oxazine-4,3'-pyrrolidin]-2(1H)-one], the values for the IC50 in test [1] and in test [2] were 0.0154 µM and 0.114 µM, respectively.

`Cn1ncc(-c2cc(N)n(CC(=O)N3CC[C@@]4(C3)OC(=O)Nc3ccc(Cl)c(F)c34)n2)c1C(F)(F)F` [Example 49, (R)-1′-(2-(5-Amino-1′-methyl-5′-(trifluoromethyl)-1H,1′H-[3,4′-bipyrazol]-1-yl)acetyl)-6-chloro-5-fluorospiro[benzo[d][1,3]oxazine-4,3′-pyrrolidin]-2(1H)-one]: the IC50 in test [1] worked out at 0.0014 µM; in test [2], 0.184 µM.

Consider `CC1(C)C(c2cc(N)n(CC(=O)N3CC[C@@]4(C3)OC(=O)Nc3ccc(Cl)c(F)c34)n2)C1(C)C` [Example 53, (R)-1′-(2-(5-Amino-3-(2,2,3,3-tetramethylcyclopropyl)-1H-pyrazol-1-yl)acetyl)-6-chloro-5-fluorospiro[benzo[d][1,3]oxazine-4,3′-pyrrolidin]-2(1H)-one], for which the half-inhibitory concentration (IC50) in test [1] is 0.0115 µM; in test [2] it was 0.32 µM.

For `Nc1cc(-c2ccc(OC(F)F)cc2)nn1CC(=O)N1CC[C@@]2(C1)OC(=O)Nc1ccc(Cl)c(F)c12` [Example 66, (R)-1′-(2-(5-Amino-3-(4-(difluoromethoxy)pheny1)-1H-pyrazol-1-yl)acetyl)-6-chloro-5-fluorospiro[benzo[d] [1,3]oxazine-4,3′-pyrrolidin]-2(1H)-one], the IC50 in test [1] came to 0.0103 µM; in test [2] it was 0.64 µM.

`Nc1cc(-c2ccccc2F)nn1CC(=O)N1CC[C@@]2(C1)OC(=O)Nc1ccc(Cl)c(F)c12` [Example 56, (R)-1′-(2-(5-Amino-3-(2-fluorophenyl)-1H-pyrazol-1-yl)acetyl)-6-chloro-5-fluorospiro[benzo[d][1,3]oxazine-4,3′-pyrrolidin]-2(1H)-one]: the figures for the IC50 in test [1] and in test [2] were 0.0046 µM and 0.165 µM, respectively.

For `Cc1cc(-c2cc(N)n(CC(=O)N3CC[C@@]4(C3)OC(=O)Nc3ccc(Cl)c(F)c34)n2)no1` [Example 60, (R)-1′-(2-(5-Amino-3-(5-methylisoxazol-3-y1)-1H-pyrazol-1-yl)acetyl)-6-chloro-5-fluorospiro[benzo[d][1,3]oxazine-4,3′-pyrrolidin]-2(1H)-one], the IC50 in test [1] amounted to 0.0243 µM; in test [2] it was 0.862 µM.

As for `Nc1cc(-c2c(F)cccc2F)nn1CC(=O)N1CC[C@@]2(C1)OC(=O)Nc1ccc(Cl)c(F)c12` [Example 37, (R)-1′-(2-(5-Amino-3-(2,6-difluorophenyl)-1H-pyrazol-1-yl)acetyl)-6-chloro-5-fluorospiro[benzo[d][1.3]oxazine-4,3′-pyrrolidin]-2(1H)-one], the results for the IC50 in test [1] and in test [2] were 0.0022 µM and 0.102 µM, respectively.

In the case of `Nc1cc(C2CCOCC2)nn1CC(=O)N1CC[C@@]2(C1)OC(=O)Nc1ccc(Cl)c(F)c12` [Example 5, (R)-1′-(2-(5-Amino-3-(tetrahydro-2H-pyran-4-y1)-1H-pyrazol-1-yl)acetyl)-6-chloro-5-fluorospiro[benzo[d][1,3]oxazine-4,3′-pyrrolidin]-2(1H)-one], the results for the IC50 in test [1] and in test [2] were 0.0306 µM and 0.685 µM, respectively.
